In patent publication US20100184815A1 (priority 2008, published 2010):

Experiments:
Assay type in all cases: cell-based
Gal-4 hPPARα = target: T1, Gal-4 hPPARα (Homo sapiens, UniProt Q07869); assay: Gal4-hPPARα transient transfection reporter assay in Cos cells; details: luciferase reporter, 24 hours with compound, scale 1-5, read-out: Gal-4 hPPAR α EC50 (scaled number)
T1 construct: Plasmids pGal4-hPPARα, pGal4-hPPARγ, pGal4-hPPARδ and pG5-TK-pGL3 were constructed as previously described by Staels, Bart, et al., Nature 1998 Jun; 25
T1 sequence (Q07869 200-468 limits assumed): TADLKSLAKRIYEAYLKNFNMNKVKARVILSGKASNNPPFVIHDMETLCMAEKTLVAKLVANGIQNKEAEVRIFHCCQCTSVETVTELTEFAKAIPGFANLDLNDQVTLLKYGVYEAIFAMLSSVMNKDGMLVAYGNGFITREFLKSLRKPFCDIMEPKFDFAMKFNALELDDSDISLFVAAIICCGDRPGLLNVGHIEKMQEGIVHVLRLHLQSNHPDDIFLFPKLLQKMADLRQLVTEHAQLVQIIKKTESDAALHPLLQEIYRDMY
Experimental: (§1) Construction of recombinant plasmids. Plasmids pGal4-hPPARα, pGal4-hPPARγ, pGal4-hPPARδ and pG5-TK-pGL3 were constructed as previously described by Staels, Bart, et al., Nature 1998 Jun. 25; 393 (6687): 790-793, by Staels (Institut Pasteur de Lille, FR).
(§2) Transient transfection assays. Cos cells were seeded in 60-mm dishes at a density of 5.5×10^5 cells/dish in Dulbecco's modified Eagle's medium (DMEM) supplemented with 10% fetal calf serum (FCS) and incubated at 37° C. for 24 hours before transfection. Cells were transfected in Opti-MEM (Gibco; Invitrogen, Carlsbad, Calif.) without FCS for 3 hours at 37° C., using polyethylenimine, with reporter and expression plasmids. The plasmid pBluescript (Stratagene, La Jolla, Calif.) was used as carrier DNA to set the final amount of DNA to 5.5 μg/dish. The pCMV-b-galactosidase expression plasmid was cotransfected as a control for transfection efficiency. Transfection was stopped by the addition of DMEM supplemented with 10% FCS, and cells were then incubated at 37° C. After 16 hours, cells were trypsinized and seeded in 96-well plates at the density of 2×10^4 cells/well and incubated for 6 hours in 10% FCS-containing DMEM. Cells were then incubated for 24 hours in DMEM containing 0.2% FCS and increasing concentrations of the compound tested or vehicle (DMSO). At the end of the experiment, cells were washed once with ice-cold PBS, lysed and the luciferase and b-galactosidase assays were performed in a luminometer and spectrophotomer. Transfection efficiencies were normalized with the b-galactosidase activity assay. Half-maximal effective concentration (EC50) was estimated using Prism software (GraphPad). All transfection experiments were performed at least three times.
(§3) In the following tables, proprietary compound EC50 values for hPPAR α, β, δ and γ are shown. The EC50 value is the concentration of a drug that induces a response halfway between the baseline and maximum, and is commonly used as a measure of drug potency. EC50 values are reported on a scale of 1 through 5, wherein the value scale is defined for each receptor as follows: […]

Gal-4 hPPARγ = target: T2, Gal-4 hPPARγ (Homo sapiens, UniProt P37231); assay: Gal4-hPPARγ transient transfection reporter assay in Cos cells; details: luciferase reporter, 24 hours with compound, scale 1-5, read-out: Gal-4 hPPAR γ EC50 (scaled number)
T2 construct: Plasmids pGal4-hPPARα, pGal4-hPPARγ, pGal4-hPPARδ and pG5-TK-pGL3 were constructed as previously described by Staels, Bart, et al., Nature 1998 Jun; 25
T2 sequence (P37231 238-505 limits assumed): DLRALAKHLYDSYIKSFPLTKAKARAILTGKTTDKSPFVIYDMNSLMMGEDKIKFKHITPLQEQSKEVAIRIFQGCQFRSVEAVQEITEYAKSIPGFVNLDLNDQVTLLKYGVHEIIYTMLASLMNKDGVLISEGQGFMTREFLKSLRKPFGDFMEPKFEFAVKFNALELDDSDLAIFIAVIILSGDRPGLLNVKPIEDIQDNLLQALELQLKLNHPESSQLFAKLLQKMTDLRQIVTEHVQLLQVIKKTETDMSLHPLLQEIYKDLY
Experimental: as §1, §2, §3

Gal-4 hPPARβ/δ = target: T3, Gal-4 hPPARβ/δ (Homo sapiens, UniProt Q03181); assay: Gal4-hPPARδ transient transfection reporter assay in Cos cells; details: luciferase reporter, 24 hours with compound, scale 1-5, read-out: Gal-4 hPPAR β/δ EC50 (scaled number)
T3 construct: Plasmids pGal4-hPPARα, pGal4-hPPARγ, pGal4-hPPARδ and pG5-TK-pGL3 were constructed as previously described by Staels, Bart, et al., Nature 1998 Jun; 25
T3 sequence (Q03181 171-441 limits assumed): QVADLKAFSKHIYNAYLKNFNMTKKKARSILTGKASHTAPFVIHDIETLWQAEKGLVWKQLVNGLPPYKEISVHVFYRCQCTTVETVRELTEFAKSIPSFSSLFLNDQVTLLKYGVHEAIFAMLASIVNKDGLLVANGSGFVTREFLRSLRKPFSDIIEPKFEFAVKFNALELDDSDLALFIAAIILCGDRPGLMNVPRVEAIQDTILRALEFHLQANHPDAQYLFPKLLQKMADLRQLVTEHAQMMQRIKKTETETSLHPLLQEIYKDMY
Experimental: as §1, §2, §3

SMILES | EC50 (Gal-4 hPPARα) [nM] | EC50 (Gal-4 hPPARγ) [nM] | EC50 (Gal-4 hPPARβ/δ) [nM]
CCn1c(COC(=O)c2ccc(SC(C)(C)C(=O)O)cc2)nn(Cc2ccc(C(C)(C)C)cc2)c1=O [Compound 195, 2-(4-(((1-(4-tert-butylbenzyl)-4-ethyl-5-oxo-4,5-dihydro-1H-1,2,4-triazol-3-yl)methoxy)carbonyl)phenylthio)-2-methylpropanoic acid] | 1 to 50 | > 1000 | > 1000
CCn1c(COC(=O)c2ccc(OC(C)(C)C(=O)O)cc2)nn(Cc2ccc(C(C)(C)C)cc2)c1=O [Compound 196, 2-(4-(((1-(4-tert-butylbenzyl)-4-ethyl-5-oxo-4,5-dihydro-1H-1,2,4-triazol-3-yl)methoxy)carbonyl)phenoxy)-2-methylpropanoic acid] | 51 to 200 | > 1000 | > 1000
CCCCCCn1c(COC(=O)c2ccc(SC(C)(C)C(=O)O)cc2)nn(Cc2ccc(C(F)(C(F)(F)F)C(F)(F)F)cc2)c1=O [Compound 203, 2-(4-(((4-hexyl-5-oxo-1-(4-(perfluoropropan-2-yl)benzyl)-4,5-dihydro-1H-1,2,4-triazol-3-yl)methoxy)carbonyl)phenylthio)-2-methylpropanoic acid] | 1 to 50 | > 1000 | > 1000
CC(C)(Sc1ccc(C(=O)OCc2cn(Cc3ccc(OC(F)(F)F)cc3)nn2)cc1)C(=O)O [Compound 73, 2-methyl-2-(4-(((1-(4-(trifluoromethoxy)benzyl)-1H-1,2,3-triazol-4-yl)methoxy)carbonyl)phenylthio)propanoic acid] | 51 to 200 | > 1000 | > 1000
CCCn1c(COC(=O)c2ccc(SC(C)(C)C(=O)O)cc2)nn(Cc2cc(C(F)(F)F)cc(C(F)(F)F)c2)c1=O [Compound 177, 2-(4-(((1-(3,5-bis(trifluoromethyl)benzyl)-5-oxo-4-propyl-4,5-dihydro-1H-1,2,4-triazol-3-yl)methoxy)carbonyl)phenylthio)-2-methylpropanoic acid] | 1 to 50 | 201 to 999 | > 1000
CC(C)(Sc1ccc(C(=O)OCc2cnn(Cc3ccc(-c4ccccc4)cc3)c2)cc1)C(=O)O [Compound 22, 2-(4-(((1-(biphenyl-4-ylmethyl)-1H-pyrazol-4-yl)methoxy)carbonyl)phenylthio)-2-methylpropanoic acid] | 51 to 200 | > 1000 | > 1000
CCn1c(COC(=O)c2ccc(SC(C)(C)C(=O)O)cc2)nn(Cc2ccc(C(F)(F)F)cc2)c1=O [Compound 197, 2-(4-(((4-ethyl-5-oxo-1-(4-(trifluoromethyl)benzyl)-4,5-dihydro-1H-1,2,4-triazol-3-yl)methoxy)carbonyl)phenylthio)-2-methylpropanoic acid] | 1 to 50 | > 1000 | > 1000
CCCn1c(COC(=O)c2ccc(SC(C)(C)C(=O)O)cc2)nn(Cc2cccc(C(F)(F)F)c2)c1=O [Compound 176, 2-methyl-2-(4-(((5-oxo-4-propyl-1-(3-(trifluoromethyl)benzyl)-4,5-dihydro-1H-1,2,4-triazol-3-yl)methoxy)carbonyl)phenylthio)propanoic acid] | 51 to 200 | > 1000 | > 1000
CC(C)(Sc1ccc(C(=O)OCc2cnn(Cc3ccc(OC(F)(F)F)cc3)c2)cc1)C(=O)O [Compound 32, 2-methyl-2-(4-(((1-(4-(trifluoromethoxy)benzyl)-1H-pyrazol-4-yl)methoxy)carbonyl)phenylthio)propanoic acid] | 1 to 50 | > 1000 | > 1000
CCCn1c(COC(=O)c2ccc(OC(C)(C)C(=O)O)cc2)nn(Cc2ccc(SC(F)(F)F)cc2)c1=O [Compound 210, 2-methyl-2-(4-(((5-oxo-4-propyl-1-(4-(trifluoromethylthio)benzyl)-4,5-dihydro-1H-1,2,4-triazol-3-yl)methoxy)carbonyl)phenoxy)propanoic acid] | 201 to 999 | > 1000 | > 1000
CCCCCCn1c(COC(=O)c2ccc(OC(C)(C)C(=O)O)cc2)nn(Cc2ccc(C(OC)(C(F)(F)F)C(F)(F)F)cc2)c1=O [Compound 202, 2-(4-(((1-(4-(1,1,1,3,3,3-hexafluoro-2-methoxypropan-2-yl)benzyl)-4-hexyl-5-oxo-4,5-dihydro-1H-1,2,4-triazol-3-yl)methoxy)carbonyl)phenoxy)-2-methylpropanoic acid] | 1 to 50 | > 1000 | > 1000
Cc1ccc(Cn2cc([C@H](C)OC(=O)c3ccc(SC(C)(C)C(=O)O)cc3)nn2)cc1 [Compound 85, (S)-2-methyl-2-(4-((1-(1-(4-methylbenzyl)-1H-1,2,3-triazol-4-yl)ethoxy)carbonyl)phenylthio)propanoic acid] | 201 to 999 | > 1000 | > 1000

Further lines, results first:

EC50 (Gal-4 hPPARα) [nM] | EC50 (Gal-4 hPPARγ) [nM] | EC50 (Gal-4 hPPARβ/δ) [nM] | SMILES
51 to 200 | > 1000 | > 1000 | CC(C)(Sc1ccc(C(=O)OCc2cn(Cc3ccc(SC(F)(F)F)cc3)nn2)cc1)C(=O)O [Compound 71, 2-methyl-2-(4-(((1-(4-(trifluoromethylthio)benzyl)-1H-1,2,3-triazol-4-yl)methoxy)carbonyl)phenylthio)propanoic acid]
1 to 50 | 201 to 999 | 201 to 999 | CC(C)(Sc1ccc(C(=O)OCc2cnn(-c3ccc(C(F)(F)F)cc3)c2)cc1)C(=O)O [Compound 18, 2-methyl-2-(4-(((1-(4-(trifluoromethyl)phenyl)-1H-pyrazol-4-yl)methoxy)carbonyl)phenylthio)propanoic acid]
1 to 50 | > 1000 | > 1000 | CC(C)(Sc1ccc(C(=O)OCc2cnn(Cc3ccc4c(c3)C(C)(C)CCC4(C)C)c2)cc1)C(=O)O [Compound 29, 2-methyl-2-(4-(((1-((5,5,8,8-tetramethyl-5,6,7,8-tetrahydronaphthalen-2-yl)methyl)-1H-pyrazol-4-yl)methoxy)carbonyl)phenylthio)propanoic acid]
51 to 200 | > 1000 | > 1000 | CC(C)(Sc1ccc(C(=O)OCc2cnn(Cc3ccc(F)c(F)c3)c2)cc1)C(=O)O [Compound 24, 2-(4-(((1-(3,4-difluorobenzyl)-1H-pyrazol-4-yl)methoxy)carbonyl)phenylthio)-2-methylpropanoic acid]
51 to 200 | > 1000 | > 1000 | CCCn1c(COC(=O)c2ccc(SC(C)(C)C(=O)O)cc2)nn(Cc2ccc(F)cc2)c1=O [Compound 165, 2-(4-(((1-(4-fluorobenzyl)-5-oxo-4-propyl-4,5-dihydro-1H-1,2,4-triazol-3-yl)methoxy)carbonyl)phenylthio)-2-methylpropanoic acid]
1 to 50 | 201 to 999 | > 1000 | CC(C)(Sc1ccc(C(=O)OCc2cnn(Cc3ccc(C(C)(C)C)cc3)c2)cc1)C(=O)O [Compound 6, 2-(4-(((1-(4-tert-butylbenzyl)-1H-pyrazol-4-yl)methoxy)carbonyl)phenylthio)-2-methylpropanoic acid]
